Tested on: Soybean Cyst Nematode (Heterodera Glycines)
Test: Soybean cyst nematode reproduction on seed-treated soybean plants in cone-tainers, eggs counted 30 days after inoculation
Format: in vivo
Details: soybean seed treatment
From the text: The expected percentage of disease control to be expected, E, for a given combination of two active ingredients can be calculated as follows (see COLBY, S. R. “Calculating synergistic and antagonistic response of herbicide combinations”. Weeds 15, pages 20-22; 1967):
wherein: X=% disease control in the case of treatment with active ingredient (A) at a defined application rate, in comparison with untreated control (=0%). Y=% disease control in the case of treatment with active ingredient (B) at a defined application rate, in comparison with untreated control. E=expected percentage of disease control (% disease control in comparison with untreated control) after treatment with active ingredient (A) and active ingredient (B) at a defined application rate. If the observed percentage of disease control O is greater than the expected value E, there is a synergistic effect.
Soybeans were planted into “cone-tainers” (3.8 cm cell diameter; 14 cm cell depth; the Ray Leach “Cone-tainer” Single Cell System consists of individual cells that can be arranged within a tray and is available from Stuewe and Sons Incorporated) in 70% sand 30% clay loam soil mix (one soybean seed per cone-tainer). The cone-tainers contained a 10 cm by 10 cm piece of cheesecloth at the bottom to prevent the soil coming out of the bottom. The soil mix was autoclaved for 60 minutes prior to use. Extra cone-tainers were planted which allowed similar size soybean plants to be selected and placed into a randomized complete block design with 3 replications of each treatment. The cone-tainers were placed into a growth chamber set at 27° C. and 14 hour day light periods. The air temperature in the growth chamber was monitored in 15 minutes intervals using a watchdog data collector. […] The water source was supplemented with fertilizer to promote plant growth.
Soil was collected from a field with “HG type” 2.5.7 (The “HG type” test is a greenhouse test that provides information on how well a soybean cyst nematode “Heterodera glycines, HG” population can reproduce in a particular soil). The soil was added to water and poured over a 25 mesh sieve over a 60 mesh sieve to collect the cysts. The soil solution collected on the 60 mesh sieve was then placed onto a 120 mesh sieve over 500 mesh sieve. […]
The soybean plants were inoculated with 6,000 soybean cyst nematode eggs 7 days after the planting of the soybeans into the cone-tainers. […] The air temperature in the growth chamber was monitored in 15 minutes intervals using a watchdog data collector. […]
The plants were removed from the growth chamber 30 days after inoculation to assess the nematode reproduction factor. […] The total number of soybean cyst nematode eggs present in each sample was determined. […]

| Compound | Observed Rf (nematode reproduction factor) (2.5 g acibenzolar-S-methyl/100 kg seed, 30 days after inoculation) | Observed Rf (nematode reproduction factor) (5.0 g acibenzolar-S-methyl/100 kg seed, 30 days after inoculation) | Observed Rf (nematode reproduction factor) (10.0 g acibenzolar-S-methyl/100 kg seed, 30 days after inoculation) | Observed Rf (nematode reproduction factor) (0.15 mg abamectin/seed, 30 days after inoculation with 6,000 eggs) |
| --- | --- | --- | --- | --- |
| CSC(=O)c1cccc2nnsc12 [(B-1), acibenzolar-S-methyl] | 4.1 | 2.7 | 3.9 | – |
| abamectin [(A-a)] | – | – | – | 2.5 |
